Patent publication US10039838B2, “Car peptide for homing, diagnosis and targeted therapy for pulmonary and fibrotic disorders” (Vascular BioSciences, priority 2010, dated 2018)
Entries after “also recorded” stand apart in the source; their conditions may differ. Primed or numbered codes have the meaning given here. Where no end group is shown, it is not given here. The star is where a group is joined. 5FAM = O=C1OC2(c3ccc(O)cc3Oc3cc(O)ccc32)c2ccc(C(=O)*)cc21; 5FAM′ = not defined here

Key:
[1] = test system: MCT induced hypertensive rat lung; assay: Peptide targeting study in monocrotaline (MCT)-induced pulmonary arterial hypertension, immunohistochemistry; format: in vivo; settings: peptide 3.3 mg/kg via tail vein, 2 hours after injection, FIG. 4
Protocol: A rat model of monocrotaline (MCT)-induced pulmonary arterial hypertension was used for this study. Briefly, male Sprague-Dawley rats (150-200 g, Harlan Laboratories, IN) were administered with a single subcutaneous injection of monocrotaline at 60 mg/kg (Sigma-Aldrich, MO), while control rats were administered 0.9% saline (FIG. 1). Rats were randomly selected and studied for peptide distribution studies on 1, 3, 7, 14 or 21 days after the treatment of monocrotaline.
(§1) The following peptides were labeled with 5-carboxyfluorescein (5FAM) and used for the lung targeting studies: CAR, 5FAM-CARSKNKDC; VCAM1, CVHSPNKKCGGSK-5FAM; Control, 5FAM-CGGGGGGGC. All peptides were synthesized by Anaspec (Anaspec Inc., CA). Peptides were resolved in PBS at the concentrations of 0.5 mg/mL.
MCT-treated or untreated rats were injected with peptide solution at a dose of 3.3 mg/kg body weight via the tail vein. […]
To determine the localization of the peptides, paraffin-embedded tissue sections were immunostained with either hematoxylin and eosin (FIGS. 2-3) or rabbit anti-fluoroscein isothiocyanate (FITC) antibody (Invitrogen, CA) followed by horseradish peroxidase-labeled anti-rabbit IgG secondary antibody (FIG. 4). […] To quantify the targeting efficiency of the peptides to the lung, the immunostained sections were scanned by Aperio Scanscope XT and analyzed using ImageScope software (Aperio Technologies, CA).

[2] = test system: severe occlusive PAH rat model; assay: Blood pressure tracing, fasudil with CARK; format: in vivo
Protocol: (§2) Severe occlusive PAH rat model was used. Animals were injected with SU5416 (20 mg/kg; SUGEN Inc), followed by 3 weeks hypoxia, then followed by 2-10 weeks normoxia.
The peptide administered was a 7 amino acid variant to the CAR peptide used in previous examples. This variant (CARK) consisted of the following sequence: CARSKNK (SEQ ID NO: 2). In these experiments, CARK was administered at a dose of 3 mg/kg and fasudil administered at 1 mg/kg.
To measure the acute effects of fasudil with CARK administration on the right and left ventricular systolic pressure (or systolic aortic pressure), blood pressure measurements were performed on catheterized SU5w/hypoxia/normoxia-exposed rats with PAH.

[3] = test system: mouse lungs after bleomycin injection; assay: Peptide targeting study in bleomycin-induced acute lung injury and pulmonary fibrosis model, immunohistochemistry; format: in vivo; settings: for Distribution of staining in mouse lungs, acute lung injury model / Distribution of staining in mouse lungs, pulmonary fibrosis model: peptide 3.3 mg/kg via tail vein, 2 hours; for Distribution of staining in mouse lungs, pulmonary fibrosis model: 14 days after bleomycin injection, FIGS. 15-17
Protocol: A mouse model of bleomycin induced acute lung injury and pulmonary fibrosis was used for this study. Briefly, 6 WT C57Bl/6 male mice, 8-12 weeks were weighed and anesthetized, and given bleomycin (BL) intratracheally at 4 U/kg. At 3 days (acute lung injury model) and 14 days (pulmonary fibrosis model) after BL injection, peptides were injected via the tail vein.
as §1
BL-treated mice were injected with peptide solution at a dose of 3.3 mg/kg body weight via the tail vein. At two hours after the injection, mice were perfused with PBS containing 1% bovine serum albumin under the deep anesthesia with isofluorane at a rate of 3.0% and euthanized. Tissues were fixed by systemic perfusion with 10% buffered formalin via right ventricle. The lung was inflated by injection of 10% formalin through the trachea. Various organs were excised from the rat and fixed for additional twenty four hours and processed for immunohistochemistry.
To determine the localization of the peptides, paraffin-embedded tissue sections were immunostained with rabbit anti-fluoroscein isothiocyanate (FITC) antibody (Invitrogen, CA) followed by horseradish peroxidase-labeled anti-rabbit IgG secondary antibody. The peptide localization was then visualized by diaminobenzidine (DAB). An automated staining system, Discovery XT (Ventana, Ariz.) was used. To quantify the targeting efficiency of the peptides to the lung, the immunostained sections were scanned by Aperio Scanscope XT and analyzed using ImageScope software (Aperio Technologies, CA) (FIGS. 14-17).

[4] = test system: severe occlusive PAH rat model; assay: Blood pressure tracing, imatinib with CAR; format: in vivo; settings: CAR 3 mg/kg + imatinib 10 mg/kg, FIG. 25
Protocol: as §2
The peptide administered was CAR, CARSKNKDC (SEQ ID NO: 1). In this experiment, CAR was administered at a dose of 3 mg/kg and imatinib administered at 10 mg/kg.
To measure the acute effects of imatinib with CAR administration on the right and left ventricular systolic pressure, blood pressure measurements were performed on catheterized SU5w/hypoxia/normoxia-exposed rats with PAH.

[5] = test system: cell surface heparan sulfate and heparin; settings: US 20090036349; Jarvinen and Ruoslahti 2007; cited from earlier work
[6] = 3 days after bleomycin injection, FIG. 14

5FAM-CARSKNKDC (cysteine pairing not given here) [CAR-FITC, CAR peptide labeled with 5-carboxyfluorescein, detected with anti-FITC antibody]
CAR-FITC staining of alveolar macrophages [1]: alveolar macrophages take up the stain

CARSKNK [CARK]
Effect of CARK co-administration with fasudil on systolic aortic pressure (SAP) ([2]; CARK 3 mg/kg + fasudil 1 mg/kg, compared to fasudil alone, FIG. 22): only a minor reduction in SAP
Effect of CARK co-administration with fasudil on LVSP ([2]; CARK 3 mg/kg + fasudil 1 mg/kg, compared to fasudil alone, FIG. 23): only a minor reduction
Effect of CARK co-administration on RVSP lowering by fasudil ([2]; CARK 3 mg/kg + fasudil 1 mg/kg, compared to fasudil alone, FIGS. 22-23): enhanced the blood pressure lowering effect of fasudil on RVSP
Effect on RVSP and LVSP of fasudil administered after cessation of CARK infusion ([2]; fasudil 10 mg/kg 30 minutes after cessation of CARK infusion, FIG. 24): sustained, pulmonary-specific effect

CARSKNKDC
Staining intensity of CAR compared with VCAM1, acute lung injury model [3, 6]: more intense
Distribution of staining in mouse lungs, acute lung injury model [3, 6]: stain the interstitium and inflammatory cells
Distribution of staining in mouse lungs, pulmonary fibrosis model [3]: Interstitial and inflammatory staining is seen in areas of lung fibrosis; also recorded: areas of dense fibrosis and spared areas showing little staining
Effect of CAR co-administration on RVSP lowering by imatinib [4]: enhanced the blood pressure lowering effect of imatinib on RVSP
Effect of CAR co-administration with imatinib on LVSP [4]: only a minor reduction in LVSP
Binding to cell surface heparan sulfate and heparin [5]: binds to cell surface heparan sulfate and heparin

CVHSPNKKCGGSK-5FAM (CVHSPNKKCGGSK-{5FAM′}; cysteine pairing not given here) [VCAM1, reference compound]
Distribution of staining in mouse lungs, acute lung injury model [3, 6]: stain the interstitium and inflammatory cells
Distribution of staining in mouse lungs, pulmonary fibrosis model [3]: areas of mild fibrosis and spared areas showing little staining
